Test results: patent US6638970B2, “Substituted alkylene diamine compounds” (CV Therapeutics, Inc., priority 2000, dated 2003)

Legend:
[1] = tested on: mitochondrial fatty acid oxidation using palmitoyl CoA as substrate; test: Palmitoyl CoA oxidation in isolated rat heart mitochondria; assay type: biochemical; conditions: 15 min at 30° C.
Description: (§1) Rat heart mitochodria were isolated by the method of Nedergard and Cannon (Methods in Enzymol. 55, 3, 1979).
(§2) Palmitoyl CoA oxidation—The Palmitoyl CoA oxidation was carried out in a total volume of 100 microliters containing the following agents: 110 mM KCl, 33 mM Tris buffer at pH 8, 2 mM KPi, 2 mM MgCl2, 0.1 mM EDTA, 14.7 microM defatted BSA, 0.5 mM malic acid, 13 mM carnitine, 1 mM ADP, 52 micrograms of mitochondrial protein, and 16 microM 1-C14 palmitoyl CoA (Sp. Activity 60 mCi/mmole; 20 microCi/ml, using 5 microliters per assay). The compounds of this invention were added in a DMSO solution at the following concentrations: 100 microM, 30 microM, and 3 microM. In each assay, a DMSO control was used. After 15 min at 30° C., the enzymatic reaction was centrifuged (20,000 g for 1 min), and 70 microliters of the supernatant was added to an activated reverse phase silicic acid column (approximately 0.5 ml of silicic acid). The column was eluted with 2 ml of water, and 0.5 ml of the eluent was used for scintillation counting to determine the amount of C^14 trapped as C^14 bicarbonate ion. The data are presented as % activity of control.

[2] = tested on: mitochondrial fatty acid oxidation using palmitoyl carnitine as substrate; test: Palmitoyl carnitine oxidation in isolated rat heart mitochondria; assay type: biochemical; conditions: 15 min at 30° C.
Description: as §1
as §2, with “Carnitine Oxidation—The” for “CoA oxidation—The”, “carnitine” for “CoA”, “0.1 mg/ml of” for “14.7 microM”, “3” for “13 mM carnitine, 1”, “43” for “16”

[3] = Metabolic stability in human liver S-9 fractions; assay type: in vitro ADME; conditions: for Liver S-9 stability factor: % parent remaining after 30 min in human liver S-9 divided by average % of ranolazine remaining (57%)
Description: Metabolic Stability: As a measure of metabolic stability the compounds of this invention were incubated with human liver S-9 microsomal fractions. After, 30 minutes at 37 C, the amount of parent drug remaining was determined using LC-mass spec. The response factors for each compound was determined by establishing a standard curve and using an internal standard during the analysis of the samples. An average of five experiments for percentage of ranolazine remaining at the 30 minute time point is 57%. The compounds of this invention were assayed as described in the protocol below and the percentage of parent remaining was divided by the average % of ranolazine remaining (57%) affording a metabolic stability factor. A compound with a stability number greater than 1.2 has a better stability than ranolazine in the liver S-9 assay. A compound with a stability number between 1.2 and 0.8 has an equivalent stability in the liver S-9 assay.
The purpose of this experiment is to compare the percentages remaining for compounds of this invention with the percentage remaining for ranolazine after 30 minutes of incubation with human liver S9 fractions.
The following reagents were used; Potassium phosphate, 0.5M […]. (incubation buffer), kept at room temperature; 0.05M MgCl2 kept at 4° C.; β-Nicotinamide adenine dinucleotide phosphate, tetrasodium salt, reduced form (NADPH), 0.02M solution in water (˜16.6 mg/mL) from Sigma Lot # 79H7044 prepared on day of use. 1 mM of ranolazine or Compounds 7, 9, and 10-13 in ACN further diluted to obtain 100 μM in 10% ACN; Human S9 stock: 20 mg/mL from Gentest Lot 3.
Incubation mixtures were prepared as follows:
Combine all components with incubation buffer and re-pipette 200 μL/tube+25 μL of the compound being tested along with 25 μL of S-9.
After 5 min of pre-incubation at 37° C., at 0 and 30 min after starting the reaction, a 50 μl aliquot of the incubation mixture was removed and added to 100 μL of 9:1 acetonitrile:methanol containing the internal standard.
The mixture was centrifuged and a 100 μL aliquot of the supernatant was diluted in 1 mL of solvent C (0.1% Formic Acid in water). Then samples were analyzed for change between the ratio of compound to internal standard at time zero and 30 minutes by LC/MS (injected 10 μL).
Samples were analyzed for the starting compounds and potential metabolite/s by LC/MS using an internal standard on a Micromass platform mass spec with a Keystone Inc. BDS ODS-C18 column with a flow rate of 0.25 ml/min.

Row | Structure (SMILES) | Palmitoyl CoA oxidation activity, % of DMSO control ([1]; 100 μM compound) | Palmitoyl carnitine oxidation remaining, % activity of DMSO control ([2]; 100 μM compound) | Liver S-9 stability factor [3] | other results
1 | COc1ccccc1OCC(O)CN(C)CCN(C)CC(=O)Nc1c(C)cccc1C (stereo not shown) [Compound 9] | 8.83% | – | – | –
2 | Cc1cccc(C)c1NC(=O)CN(C)CCCN(C)CC(O)Cc1ccc2c(c1)OCO2 (stereo not shown) [Compound 22] | 12.5% | 97% | 1.58 | –
3 | Cc1cccc(C)c1NC(=O)CN(C)CCN(C)CC(O)Cc1ccc2c(c1)OCO2 (stereo not shown) [Compound 20] | – | 98.7% | 1.59 | –
4 | Cc1cccc(C)c1NC(=O)CN(C)CCN(C)CC(O)COc1c(Cl)cccc1Cl (stereo not shown) [Compound 10] | 23% | – | – | –
5 | CCN(CCN(CC)CC(O)c1ccccc1F)CC(=O)Nc1c(C)cccc1C (stereo not shown) [Compound 18] | 54.8% | – | – | –
6 | Cc1cccc(C)c1NC(=O)CN(C)CCN(C)CC(O)COc1ccc2c(c1)OCO2 (stereo not shown) [Compound 7, 2-({2-[(3-(2H-benzo[d]1,3-dioxolen-5-yloxy)-2-hydroxypropyl)methylamino]ethyl}methylamino)-N-(2,6-dimethylphenyl)acetamide] | – | – | 1.51 | –
7 | Cc1cccc(C)c1NC(=O)CN(C)CCN(C)CC(O)Cc1cccc2ccccc12 (stereo not shown) [Compound 12] | 26.5% | – | – | –
8 | CCN(CCN(CC)CC(O)COc1c(Cl)cccc1Cl)CC(=O)Nc1c(C)cccc1C (stereo not shown) [Compound 14] | 97.1% | – | – | –
9 | COc1ccccc1CC(O)CN(C)CCN(C)CC(=O)Nc1c(C)cccc1C (stereo not shown) [Compound 11] | 8% | – | – | –
10 | CCN(CCN(CC)CC(O)Cc1ccc2c(c1)OCO2)CC(=O)Nc1c(C)cccc1C (stereo not shown) [Compound 19] | 26% | 97.1% | – | –
11 | COc1ccccc1OCC(O)CN1CCN(CC(=O)Nc2c(C)cccc2C)CC1 (racemic) [Ranolazine, (±)-N-(2,6-dimethylphenyl)-4-[2-hydroxy-3-(2-methoxyphenoxy)-propyl]-1-piperazineacetamide, reference compound] | 75% | 63% | 1.0 | Palmitoyl CoA oxidation activity, % of DMSO control ([1]; 30 μM compound): 90%; Palmitoyl carnitine oxidation remaining, % activity of DMSO control ([2]; 30 μM compound): 98%; percentage of parent drug remaining at the 30 minute time point ([3]; human liver S-9, 30 minutes at 37 C, 10 μM, average of five experiments): 57%
12 | CCN(CCN(CC)CC(O)c1ccccc1Cl)CC(=O)Nc1c(C)cccc1C (stereo not shown) [Compound 17] | 34.3% | – | 0.01 | –
13 | Cc1cccc(C)c1NC(=O)CN(C)CCCN(C)CC(O)Cc1ccccc1 (stereo not shown) [Compound 21] | – | 4.9% | 0.08 | –
14 | CCN(CCN(CC)CC(O)COc1ccccc1OC)CC(=O)Nc1c(C)cccc1C (stereo not shown) [Compound 13] | 67.8% | – | – | –
